# Measurements from PubChem BioAssay AID330 (DTP/NCI, 2004).
# Values joined by “and” are separate entries in the source; they are usually repeats but may differ in a detail not shown here. Identical values can stand only once. Inconclusive results and toxic doses are left out.
# Test system: P388 leukemia ip, CD2F1 mice, survival T/C
# Experiment: NCI In Vivo Anticancer Drug Screen. Data for tumor model P388 Leukemia (intraperitoneal) in CD2F1 (CDF1) mice
# Settings: endpoint: median survival time, higher = longer survival
# Procedure, shortened: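 Mice carrying the transplanted tumor received test compound or vehicle. Survival was recorded in each group, and the value is the treated-group measurement divided by that of the vehicle-treated control group.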
# [1] = dose: 100.0 mg/kg/injection, schedule: Q01DX001 (ip), vehicle: saline
# [2] = dose: 60.0 mg/kg/injection, schedule: Q01DX005 (ip), vehicle: saline with Tween-80
# [3] = dose: 120.0 mg/kg/injection, schedule: Q01DX005 (ip), vehicle: saline with Tween-80
# [4] = dose: 240.0 mg/kg/injection, schedule: Q01DX005 (ip), vehicle: saline with Tween-80
# [5] = dose: 50.0 mg/kg/injection, schedule: Q01DX009 (ip), vehicle: saline
# [6] = dose: 100.0 mg/kg/injection, schedule: Q01DX009 (ip), vehicle: saline
# [7] = dose: 200.0 mg/kg/injection, schedule: Q01DX009 (ip), vehicle: saline
# [8] = dose: 3.12 mg/kg/injection, schedule: Q01DX005 (ip), vehicle: Klucel (hydroxypropylcellulose) (HPC)
# [9] = dose: 6.25 mg/kg/injection, schedule: Q01DX005 (ip), vehicle: Klucel (hydroxypropylcellulose) (HPC)
# [10] = dose: 50.0 mg/kg/injection, schedule: Q01DX005 (ip), vehicle: saline with Tween-80
# [11] = dose: 100.0 mg/kg/injection, schedule: Q01DX005 (ip), vehicle: saline with Tween-80
# [12] = dose: 200.0 mg/kg/injection, schedule: Q01DX005 (ip), vehicle: saline with Tween-80
# [13] = dose: 12.5 mg/kg/injection, schedule: Q01DX005 (ip), vehicle: Klucel (hydroxypropylcellulose) (HPC)
# [14] = dose: 25.0 mg/kg/injection, schedule: Q01DX005 (ip), vehicle: Klucel (hydroxypropylcellulose) (HPC)
# [15] = dose: 100.0 mg/kg/injection, schedule: Q04DX003 (ip), vehicle: saline
# [16] = dose: 200.0 mg/kg/injection, schedule: Q04DX003 (ip), vehicle: saline
structure (smiles),measurement,setting,value
N#Cc1c(-c2ccc(F)cc2)c(-c2ccc(F)cc2)nn(CCO)c1=O,T/C,"dose: 12.5 mg/kg/injection, schedule: Q04DX002 (ip), vehicle: distilled water + Tween-80",98 % of control
same,T/C,"dose: 25.0 mg/kg/injection, schedule: Q04DX002 (ip), vehicle: distilled water + Tween-80",101 % of control and 108 % of control and 112 % of control
same,T/C,"dose: 50.0 mg/kg/injection, schedule: Q01DX005 (ip), vehicle: distilled water + Tween-80",117 % of control
same,T/C,"dose: 100.0 mg/kg/injection, schedule: Q04DX002 (ip), vehicle: distilled water + Tween-80",121 % of control and 166 % of control and 201 % of control
same,T/C,"dose: 200.0 mg/kg/injection, schedule: Q01DX005 (ip), vehicle: distilled water + Tween-80",155 % of control
same,T/C,"dose: 200.0 mg/kg/injection, schedule: Q04DX002 (ip), vehicle: distilled water + Tween-80",150 % of control
same,T/C,"dose: 400.0 mg/kg/injection, schedule: Q01DX005 (ip), vehicle: distilled water + Tween-80",238 % of control
CC(=O)OCc1ncccc1OC(C)=O,T/C,"dose: 25.0 mg/kg/injection, schedule: Q01DX009 (ip), vehicle: saline with Tween-80",104 % of control
same,T/C,"dose: 50.0 mg/kg/injection, schedule: Q01DX009 (ip), vehicle: saline with Tween-80",111 % of control
same,T/C,"dose: 100.0 mg/kg/injection, schedule: Q01DX009 (ip), vehicle: saline with Tween-80",104 % of control
same,T/C,"dose: 200.0 mg/kg/injection, schedule: Q01DX009 (ip), vehicle: saline with Tween-80",109 % of control
CC(NNC(=S)N1CCN(c2ccccn2)CC1)c1nccc2ccccc12 (centres undefined),T/C,"dose: 12.5 mg/kg/injection, schedule: Q04DX002 (ip), vehicle: Klucel (hydroxypropylcellulose) (HPC)",100 % of control
same,T/C,"dose: 25.0 mg/kg/injection, schedule: Q04DX002 (ip), vehicle: Klucel (hydroxypropylcellulose) (HPC)",100 % of control
same,T/C,"dose: 50.0 mg/kg/injection, schedule: Q04DX002 (ip), vehicle: Klucel (hydroxypropylcellulose) (HPC)",103 % of control
same,T/C,"dose: 100.0 mg/kg/injection, schedule: Q04DX002 (ip), vehicle: Klucel (hydroxypropylcellulose) (HPC)",122 % of control and 124 % of control
same,T/C,"dose: 200.0 mg/kg/injection, schedule: Q04DX002 (ip), vehicle: Klucel (hydroxypropylcellulose) (HPC)",96 % of control
COc1c2occc2c(CSC(=N)N)c2ccc(=O)oc12,T/C,"dose: 25.0 mg/kg/injection, schedule: Q01DX001 (ip), vehicle: saline",105 % of control
same,T/C,"dose: 50.0 mg/kg/injection, schedule: Q01DX001 (ip), vehicle: saline",100 % of control
same,T/C,[1],100 % of control
OCc1sccc1-n1cccc1,T/C,[2],104 % of control
same,T/C,[3],104 % of control
same,T/C,[4],104 % of control
O=C1OCC(Cc2ccc3c(c2)OCO3)C1Cc1ccc2c(c1)OCO2 (centres undefined),T/C,[5],109 % of control
same,T/C,[6],93 % of control
same,T/C,[7],99 % of control
Cc1cc(O)c2c(c1)C(=O)C13C(=C2O)C(=O)C2C(O)C1C1C(O)C3C(=O)C3=C(O)c4c(O)cc(C)cc4C(=O)C321 (centres undefined),T/C,[8],110 % of control
same,T/C,[9],100 % of control
CCCCCC(=O)C(C)(c1nc2nnc(NC(=O)Nc3ccc(Cl)cc3)n2[nH]c1=O)c1nc2nnc(NC(=O)Nc3ccc(Cl)cc3)n2[nH]c1=O,T/C,[2],103 % of control
same,T/C,[3],98 % of control
same,T/C,[4],97 % of control
CCCCCNc1ccc(NCCCCC)c2c1C(=O)c1ccccc1C2=O,T/C,[5],98 % of control
same,T/C,[6],99 % of control
same,T/C,[7],89 % of control
S=c1[nH]cc2cnccn12,T/C,"dose: 50.0 mg/kg/injection, schedule: Q04DX003 (ip), vehicle: saline with Tween-80",100 % of control
same,T/C,"dose: 100.0 mg/kg/injection, schedule: Q04DX003 (ip), vehicle: saline with Tween-80",110 % of control
same,T/C,"dose: 200.0 mg/kg/injection, schedule: Q04DX003 (ip), vehicle: saline with Tween-80",110 % of control
CC1(c2ccccc2)CCOCO1 (centres undefined),T/C,[10],106 % of control
same,T/C,[11],98 % of control
same,T/C,[12],104 % of control
CC(=O)OCC12C(OC(C)=O)CC(C)C3(CC(c4ccoc4)OC3=O)C1CCC(=O)C2(O)CCl (centres undefined),T/C,"dose: 0.75 mg/kg/injection, schedule: Q01DX005 (ip), vehicle: saline + alcohol",106 % of control
same,T/C,"dose: 1.5 mg/kg/injection, schedule: Q01DX005 (ip), vehicle: saline + alcohol",103 % of control
same,T/C,"dose: 3.0 mg/kg/injection, schedule: Q01DX005 (ip), vehicle: saline + alcohol",106 % of control
same,T/C,"dose: 6.0 mg/kg/injection, schedule: Q01DX005 (ip), vehicle: saline + alcohol",108 % of control
same,T/C,"dose: 12.0 mg/kg/injection, schedule: Q01DX005 (ip), vehicle: saline + alcohol",106 % of control
same,T/C,"dose: 12.5 mg/kg/injection, schedule: Q01DX005 (ip), vehicle: saline + Tween-80 + alcohol",92 % of control
same,T/C,"dose: 25.0 mg/kg/injection, schedule: Q01DX005 (ip), vehicle: saline + Tween-80 + alcohol",98 % of control
same,T/C,"dose: 100.0 mg/kg/injection, schedule: Q01DX005 (ip), vehicle: saline + Tween-80 + alcohol",89 % of control
same,T/C,"dose: 150.0 mg/kg/injection, schedule: Q01DX005 (ip), vehicle: saline + Tween-80 + alcohol",91 % of control
COC(=O)C(C)n1c(C(C)C)csc1=S (centres undefined),T/C,[10],111 % of control
same,T/C,[11],110 % of control
same,T/C,[12],98 % of control
NC(=O)[C@H]1C[C@H](O)CN1C(=O)c1cnc2ccccc2c1,T/C,"dose: 60.0 mg/kg/injection, schedule: Q01DX005 (ip), vehicle: saline",112 % of control
same,T/C,"dose: 120.0 mg/kg/injection, schedule: Q01DX005 (ip), vehicle: saline",98 % of control
same,T/C,"dose: 240.0 mg/kg/injection, schedule: Q01DX005 (ip), vehicle: saline",102 % of control
Cc1cn(CCCOc2c3occc3cc3ccc(=O)oc23)c(=O)[nH]c1=O,T/C,[13],86 % of control
same,T/C,[14],96 % of control
same,T/C,"dose: 50.0 mg/kg/injection, schedule: Q01DX005 (ip), vehicle: Klucel (hydroxypropylcellulose) (HPC)",88 % of control
C/C(=N\NC(=S)Nc1nccs1)c1nccc2ccccc12,T/C,[10],100 % of control
same,T/C,[11],114 % of control
same,T/C,[12],122 % of control
C=C1C(=O)C23CC[C@H]4C(C)(CCC[C@]4(C)C(=O)O)[C@@H]2CCC1C3 (some centres undefined),T/C,"dose: 3.75 mg/kg/injection, schedule: Q01DX005 (ip), vehicle: Klucel (hydroxypropylcellulose) (HPC)",86 % of control
same,T/C,"dose: 7.5 mg/kg/injection, schedule: Q01DX005 (ip), vehicle: Klucel (hydroxypropylcellulose) (HPC)",91 % of control
same,T/C,"dose: 15.0 mg/kg/injection, schedule: Q01DX005 (ip), vehicle: Klucel (hydroxypropylcellulose) (HPC)",87 % of control
same,T/C,"dose: 30.0 mg/kg/injection, schedule: Q01DX005 (ip), vehicle: Klucel (hydroxypropylcellulose) (HPC)",98 % of control
COc1ccc2c(c1)CCC(c1ccccc1)=C2c1ccc(OCCN2CCCC2)cc1,T/C,"dose: 6.0 mg/kg/injection, schedule: Q01DX005 (ip), vehicle: Klucel (hydroxypropylcellulose) (HPC)",102 % of control
same,T/C,"dose: 12.0 mg/kg/injection, schedule: Q01DX005 (ip), vehicle: Klucel (hydroxypropylcellulose) (HPC)",105 % of control
same,T/C,"dose: 24.0 mg/kg/injection, schedule: Q01DX005 (ip), vehicle: Klucel (hydroxypropylcellulose) (HPC)",105 % of control
same,T/C,"dose: 48.0 mg/kg/injection, schedule: Q01DX005 (ip), vehicle: Klucel (hydroxypropylcellulose) (HPC)",103 % of control
CCOP(=O)(OCC)c1ncn(Cc2ccccc2)c1N,T/C,[1],97 % of control
same,T/C,"dose: 200.0 mg/kg/injection, schedule: Q01DX001 (ip), vehicle: saline",104 % of control
same,T/C,"dose: 400.0 mg/kg/injection, schedule: Q01DX001 (ip), vehicle: saline",101 % of control
CCc1ccc(NC(=O)/C=C\C(=O)O)cc1,T/C,[10],98 % of control
same,T/C,[11],95 % of control
same,T/C,[12],90 % of control
CC1(C)CC(C)(C)c2c1oc(=O)c1c3c(oc(=O)c21)C(C)(C)CC3(C)C,T/C,[8],96 % of control
same,T/C,[9],100 % of control
same,T/C,[13],87 % of control
same,T/C,[14],87 % of control and 90 % of control
same,T/C,"dose: 100.0 mg/kg/injection, schedule: Q01DX005 (ip), vehicle: Klucel (hydroxypropylcellulose) (HPC)",90 % of control and 91 % of control
CCOC(=O)C1(c2ccccc2)SC(C(=O)OCC)(c2ccccc2)S1 (centres undefined),T/C,[15],112 % of control
same,T/C,[16],107 % of control
same,T/C,"dose: 400.0 mg/kg/injection, schedule: Q04DX003 (ip), vehicle: saline",103 % of control
CNCC(CO)C(C)(C)C (centres undefined),T/C,[15],101 % of control
same,T/C,[16],92 % of control
